In DBAASP:
In brackets after ≈: the same amount, converted by molar mass. Several values for one entry are separate records, joined by “and”; a condition that tells them apart may be missing. Equal entries are not always repeated. Values belong to the compound of their own block, whether it stands above or below them.

How the values were obtained:
Assay in all cases: ≥ marks a high value that may be exact or a test limit, other limits are often not marked, values filed in µg/mL are converted to µM
Streptococcus gordonii = system: Streptococcus gordonii
[1] = system: Pseudomonas aeruginosa ATCC 10145
[2] = system: Porphyromonas gingivalis ATCC 33277
[3] = system: Bacillus subtilis ATCC 11774
[4] = system: Escherichia coli ATCC 12014
[5] = system: Staphylococcus aureus ATCC 6538
[6] = system: Enterococcus faecalis OG1X
[7] = system: Enterococcus faecalis FA2-2
[8] = system: Salmonella enterica subsp. enterica serovar Typhimurium ATCC BAA-215
Staphylococcus aureus = system: Staphylococcus aureus
Aspergillus nidulans = system: Aspergillus nidulans
Escherichia coli = system: Escherichia coli
Candida albicans = system: Candida albicans
[9] = system: Enterobacter cloacae ATCC 13047
[10] = system: Staphylococcus aureus IS10#
Escherichia coli IS37# = system: Escherichia coli IS37#
Escherichia coli IS117# = system: Escherichia coli IS117#
[11] = system: Escherichia coli ATCC 25922
Escherichia coli IS218# = system: Escherichia coli IS218#
[12] = system: Pseudomonas aeruginosa IS350#
[13] = system: Staphylococcus aureus IS37#
[14] = system: Candida albicans ATCC 90028
[15] = system: Enterococcus faecalis ATCC 29212
[16] = system: Klebsiella pneumoniae IS59#
Shigella dysenteriae = system: Shigella dysenteriae
[17] = system: Pseudomonas aeruginosa CMCCB 1010
[18] = system: Candida parapsilosis ATCC 22019
[19] = system: Candida albicans ATCC 2002
[20] = system: Staphylococcus aureus ATCC 25923
[21] = system: Klebsiella pneumoniae ATCC 700603
[22] = system: Pseudomonas aeruginosa ATCC 27853
[23] = system: Staphylococcus aureus ATCC 29213
Candida krusei ATCC 6258 = system: Candida krusei ATCC 6258
[24] = system: Staphylococcus epidermidis ATCC 12228
[25] = system: Candida glabrata ATCC 90030
[26] = system: Staphylococcus aureus ATCC 33591
[27] = system: Staphylococcus aureus S015
[28] = system: Enterococcus faecalis ATCC 4028
Escherichia coli D31 = system: Escherichia coli D31
[29] = system: Micrococcus luteus DSM 20030
[30] = system: Mycobacterium tuberculosis
[31] = system: Pseudomonas aeruginosa ATCC 9027
Candida glabrata = system: Candida glabrata
[32] = system: Mycobacterium tuberculosis H37Rv
Streptococcus agalactiae = system: Streptococcus agalactiae

Structure (SMILES): CC[C@H](C)[C@H](NC(=O)[C@H](CCCCN)NC(=O)[C@H](CCC(=O)O)NC(=O)[C@H](CCCCN)NC(=O)[C@H](CO)NC(=O)[C@H](CCCCN)NC(=O)[C@@H](N)CCCN=C(N)N)C(=O)NCC(=O)N[C@@H](CCCCN)C(=O)N[C@@H](CCC(=O)O)C(=O)N[C@@H](Cc1ccccc1)C(=O)N[C@@H](CCCCN)C(=O)N[C@@H](CCCN=C(N)N)C(=O)N[C@H](C(=O)N[C@H](C(=O)N[C@@H](CCC(N)=O)C(=O)N[C@@H](CCCN=C(N)N)C(=O)N[C@H](C(=O)N[C@@H](CCCCN)C(=O)N[C@@H](CC(=O)O)C(=O)N[C@@H](Cc1ccccc1)C(=O)O)[C@@H](C)CC)C(C)C)[C@@H](C)CC [RKSKEKIGKEFKRIVQRIKDF]
MIC (Streptococcus gordonii): 2.37 µM (≈ 6.25 µg/mL) | MIC [1]: ≥ 38 µM | MIC [2]: 4.75 µM (≈ 12.5 µg/mL) | MIC [3]: 0.038 µM (≈ 0.1 µg/mL) | MIC [4]: 0.152 µM (≈ 0.4 µg/mL) | MIC [5]: 19 µM (≈ 50 µg/mL) | MIC [6]: 19 µM (≈ 50 µg/mL) | MIC [7]: 4.75 µM (≈ 12.5 µg/mL) | MIC [8]: 19 µM (≈ 50 µg/mL)

Structure (SMILES): CC[C@H](C)[C@H](NC(=O)CNC(=O)[C@H](CO)NC(=O)[C@H](CC(C)C)NC(=O)[C@H](CC(C)C)NC(=O)CN)C(=O)N[C@@H](CC(C)C)C(=O)NCC(=O)N[C@@H](C)C(=O)NCC(=O)N[C@@H](CCCCN)C(=O)N[C@@H](CCCN=C(N)N)C(=O)N[C@H](C(=O)N[C@H](C(=O)N[C@H]1CSSC[C@@H](C(=O)O)NC(=O)[C@H](CC(C)C)NC(=O)CNC(=O)[C@H](CO)NC(=O)[C@H](CC(C)C)NC(=O)CNC1=O)C(C)C)[C@@H](C)CC [GLLSGILGAGKRIVCGLSGLC]
MIC [9]: 2.52 µM (≈ 5 µg/mL) | MIC [10]: 2.52 µM (≈ 5 µg/mL) | MIC (Escherichia coli IS37#): 5.03 µM (≈ 9.99 µg/mL) | MIC (Escherichia coli IS117#): 5.03 µM (≈ 9.99 µg/mL) | MIC [11]: 2.52 µM (≈ 5 µg/mL) | MIC (Escherichia coli IS218#): 10.1 µM (≈ 20 µg/mL) | MIC [12]: 10.1 µM (≈ 20 µg/mL) | MIC [13]: 5.03 µM (≈ 9.99 µg/mL) | MIC [14]: 1.26 µM (≈ 2.5 µg/mL) | MIC [15]: 5.03 µM (≈ 9.99 µg/mL) | MIC [16]: 10.1 µM (≈ 20 µg/mL) | MIC (Shigella dysenteriae): 5.03 µM (≈ 9.99 µg/mL) | MIC [17]: 0.503 µM (≈ 0.999 µg/mL) | MIC [18]: 2.52 µM (≈ 5 µg/mL) | MIC [19]: 1.01 µM (≈ 2 µg/mL) | MIC [20]: 5.03 µM (≈ 9.99 µg/mL) | MIC [21]: 0.503 µM (≈ 0.999 µg/mL) | MIC [22]: 5.03 µM (≈ 9.99 µg/mL)

Structure (SMILES): CC[C@H](C)[C@H](NC(=O)[C@H](Cc1c[nH]c2ccccc12)NC(=O)[C@@H](N)CO)C(=O)N[C@@H](CCCCN)C(=O)N[C@@H](CCCCN)C(=O)N[C@@H](CC(=O)O)C(=O)N[C@@H](CCCCN)C(=O)N[C@@H](Cc1ccccc1)C(=O)N1CCC[C@H]1C(=O)N[C@@H](CO)C(=O)N[C@@H](CO)C(=O)N[C@H](C(=O)NCC(=O)N1CCC[C@H]1C(=O)N[C@@H](Cc1ccc(O)cc1)C(=O)N[C@@H](CC(N)=O)C(=O)N1CCC[C@H]1C(=O)N[C@@H](CC(N)=O)C(=O)N1CCC[C@H]1C(=O)N1CCC[C@H]1C(=O)N1CCC[C@H]1C(=O)N1CCC[C@H]1C(=O)N[C@@H](CCCN=C(N)N)C(=O)N[C@@H](Cc1ccccc1)C(=O)O)[C@@H](C)O [SWIKKDKFPSSTGPYNPNPPPPRF]
MIC (Escherichia coli D31): ≥ 100 µM | MIC [29]: ≥ 100 µM

Structure (SMILES): CC[C@H](C)[C@H](NC(=O)[C@H](CCCCN)NC(=O)[C@H](CCCCN)NC(=O)[C@@H](NC(=O)[C@H](C)NC(=O)[C@H](CO)NC(=O)[C@@H](NC(=O)[C@H](C)NC(=O)[C@H](CO)NC(=O)[C@@H]1CCCN1C(=O)[C@@H](NC(=O)[C@H](CC(C)C)NC(=O)[C@H](CO)NC(=O)[C@H](CC(C)C)NC(=O)[C@H](CC(C)C)NC(=O)[C@H](Cc1ccccc1)NC(=O)[C@H](Cc1ccccc1)NC(=O)[C@@H]1CCCN1C(=O)[C@@H](N)CC(C)C)[C@@H](C)CC)[C@@H](C)CC)[C@@H](C)CC)C(N)=O [LPFFLLSLIPSAISAIKKI]
MIC [30]: 4.8 µM (≈ 9.94 µg/mL) | MIC [31]: 2.5 µM (≈ 5.18 µg/mL) | MIC (Candida glabrata): ≥ 50 µM | MIC [11]: 24 µM (≈ 49.7 µg/mL) | MIC (Candida albicans): 6.25 µM (≈ 12.9 µg/mL) | MIC [32]: 17.4 µM (≈ 36 µg/mL) | MIC [20]: 2.5 µM (≈ 5.18 µg/mL) | MIC (Streptococcus agalactiae): 2.5 µM (≈ 5.18 µg/mL)

The next lines start with the values.

MIC (Staphylococcus aureus): > 125 µM | MIC (Aspergillus nidulans): 21.9 µM (≈ 35.4 µg/mL) | MIC (Escherichia coli): > 125 µM | MIC (Candida albicans): 11 µM (≈ 17.7 µg/mL)
Structure (SMILES): CC[C@H](C)[C@H](NC(=O)[C@H](CO)NC(=O)[C@@H]1CCCN1C(=O)[C@H](CCCN=C(N)N)NC(=O)[C@H](Cc1c[nH]c2ccccc12)NC(=O)[C@H](Cc1c[nH]c2ccccc12)NC(=O)[C@H](Cc1ccc(O)cc1)NC(=O)[C@H](CCC(N)=O)NC(=O)[C@H](CCCCN)NC(=O)[C@H](CC(C)C)NC(=O)[C@@H]1CCCN1C(=O)[C@@H](N)Cc1cnc[nH]1)C(=O)O [HPLKQYWWRPSI]

MIC [9]: ≥ 150 µM | MIC [23]: 8.68 µM and 9.37 µM | MIC [11]: > 139 µM | MIC (Candida krusei ATCC 6258): ≥ 69.5 µM | MIC [14]: ≥ 34.8 µM | MIC [15]: > 139 µM | MIC [24]: 9.38 µM and 9.37 µM | MIC [25]: ≥ 69.5 µM | MIC [26]: 17.4 µM (≈ 31.2 µg/mL) | MIC [27]: ≥ 139 µM | MIC [28]: ≥ 150 µM | MIC [22]: > 150 µM
Structure (SMILES): CC[C@H](C)[C@H](NC(=O)[C@H](CC(C)C)NC(=O)CNC(=O)CNC(=O)[C@@H](NC(=O)[C@H](CC(C)C)NC(=O)[C@H](CO)NC(=O)[C@@H]1CCCN1C(=O)[C@@H](NC(=O)[C@H](CC(C)C)NC(=O)[C@H](CO)NC(=O)[C@H](Cc1ccccc1)NC(=O)[C@@H](N)Cc1ccccc1)[C@@H](C)CC)C(C)C)C(=O)N[C@@H](CO)C(=O)N[C@@H](C)C(=O)N[C@@H](Cc1ccccc1)C(=O)N[C@@H](CCCCN)C(N)=O [FFSLIPSLVGGLISAFK]
